Measured values taken from ChEMBL document CHEMBL4482324, “Ash1l inhibitors and methods of treatment therewith” (2017).
Calls of active or inactive are those of the source. No cut-off for these calls is given here.

What was measured:
[1] = Effect on HOX9 gene expression in Hoxa9/Meis1 transformed mouse HM2 cells at 6 to 12 uM by quantitative RT-PCR analysis; assay type: ADME
[2] = Effect on Meis1 gene expression in Hoxa9/Meis1 transformed mouse HM2 cells at 6 to 12 uM by quantitative RT-PCR analysis; assay type: ADME
[3] = Effect on HOX7 gene expression in Hoxa9/Meis1 transformed mouse HM2 cells at 6 to 12 uM by quantitative RT-PCR analysis; assay type: ADME
[4] = biological target: Histone-lysine N-methyltransferase ASH1L (Mus musculus) (UniProt Q99MY8); test: Inhibition of ASH1L in MLL-AF9 transformed mouse MA9 cells assessed as downregulation of Meis1 gene expression at 6 to 12 uM by quantitative RT-PCR analysis
[5] = biological target: Histone-lysine N-methyltransferase ASH1L (Mus musculus) (UniProt Q99MY8); test: Inhibition of ASH1L in MLL-AF9 transformed mouse MA9 cells assessed as downregulation of HOX10 gene expression at 6 to 12 uM by quantitative RT-PCR analysis
[6] = biological target: Histone-lysine N-methyltransferase ASH1L (Mus musculus) (UniProt Q99MY8); test: Inhibition of ASH1L in MLL-AF9 transformed mouse MA9 cells assessed as downregulation of HOX7 gene expression at 6 to 12 uM by quantitative RT-PCR analysis
[7] = Cytotoxicity in Hoxa9/Meis1 transformed mouse HM2 cells assessed as reduction in cell viability incubated for 12 days with fresh compound replacement for every 4 days by MTT assay; assay type: cell-based
MV4-11 = test: Cytotoxicity in human MV4-11 cells assessed as reduction in cell viability incubated for 12 days with fresh compound replacement for every 4 days by MTT assay; assay type: functional
[8] = biological target: Histone-lysine N-methyltransferase ASH1L (Mus musculus) (UniProt Q99MY8); test: Inhibition of ASH1L in MLL-AF9 transformed mouse MA9 cells assessed as downregulation of HOX9 gene expression at 6 to 12 uM by quantitative RT-PCR analysis
[9] = Cytotoxicity in MLL-AF9 transformed mouse MA9 cells assessed as reduction in cell viability incubated for 12 days with fresh compound replacement for every 4 days by MTT assay; assay type: functional
[10] = Effect on HOX10 gene expression in Hoxa9/Meis1 transformed mouse HM2 cells at 6 to 12 uM by quantitative RT-PCR analysis; assay type: ADME
MOLM-13 = test: Cytotoxicity in human MOLM13 cells assessed as reduction in cell viability incubated for 12 days with fresh compound replacement for every 4 days by MTT assay; assay type: functional
[11] = biological target: Histone-lysine N-methyltransferase ASH1L (Homo sapiens, UniProt Q9NR48); test: Inhibition of MOCR-fused ASH1L SET-BAH ( 2069 to 2833 amino acids) (unknown origin) expressed as in Escherichia coli BL21 (DE3) T1R cells using SAM and chicken mono/dinucleosomes incubated for 1 hr by scintillation counting assay
[12] = biological target: Histone-lysine N-methyltransferase ASH1L (Mus musculus) (UniProt Q99MY8); test: Inhibition of ASH1L in MLL-AF9 transformed mouse MA9 cells assessed as downregulation of Meis1 gene expression at 1.5 to 6 uM by quantitative RT-PCR analysis
[13] = biological target: Histone-lysine N-methyltransferase ASH1L (Mus musculus) (UniProt Q99MY8); test: Inhibition of ASH1L in MLL-AF9 transformed mouse MA9 cells assessed as downregulation of HOX9 gene expression at 1.5 to 6 uM by quantitative RT-PCR analysis
SEM cells = test: Cytotoxicity in human SEM cells assessed as reduction in cell viability incubated for 12 days with fresh compound replacement for every 4 days by MTT assay; assay type: functional
RS4-11 = test: Cytotoxicity in human RS4:11 cells assessed as reduction in cell viability incubated for 12 days with fresh compound replacement for every 4 days by MTT assay; assay type: functional
[14] = biological target: Histone-lysine N-methyltransferase ASH1L (Mus musculus) (UniProt Q99MY8); test: Inhibition of ASH1L in MLL-AF9 transformed mouse MA9 cells assessed as downregulation of HOX10 gene expression at 1.5 to 6 uM by quantitative RT-PCR analysis
Mus musculus = organism: Mus musculus; test: Induction of cell differentiation in MLL-AF9 transformed mouse MA9 cells at 6 to 12 uM; assay type: functional
[15] = Induction of cell differentiation in Hoxa9/Meis1 transformed mouse HM2 cells at 6 to 12 uM

NC(=S)c1cccc(-c2c[nH]c3ccc(O)cc23)c1
Activity [1]: Non-Toxic
Activity [2]: Non-Toxic
Activity [3]: Non-Toxic
inhibition [4]: inactive
inhibition [5]: inactive
inhibition [6]: inactive
GI50 at 288 h [7]: 62 µM
GI50 (MV4-11): 27 µM
inhibition [8]: inactive
GI50 [9]: 43 µM
Activity [10]: Non-Toxic
GI50 (MOLM-13): 38 µM
IC50 [11]: > 100 µM

NC(=S)c1cccc(-c2cn(CCCC(F)(F)F)c3cc(-c4ccn[nH]4)ccc23)c1
inhibition [12]: Active
inhibition [13]: Active
GI50 (SEM cells): 1.1 µM
GI50 (RS4-11): 2.8 µM
GI50 (MV4-11): 1.8 µM
GI50 (MOLM-13): 1.4 µM
IC50 [11]: < 20 µM
inhibition [14]: Active

NC(=S)c1cccc(-c2cn(C3CCN(S(=O)(=O)CCCNC(=O)c4ccc5c(c4)C(=O)OC54c5ccc(O)cc5Oc5cc(O)ccc54)CC3)c3cc(CNC(=O)Cc4c[nH]cn4)ccc23)c1
IC50 [11]: < 20 µM

CS(=O)(=O)N1CCC(n2cc(-c3cccc(C(N)=S)c3)c3ccc(CNC(=O)Cc4[nH]cc5ccccc45)cc32)CC1
IC50 [11]: < 20 µM

NC(=S)c1cccc(-c2c[nH]c3cc4cc[nH]c4cc23)c1
IC50 [11]: < 20 µM

CCOc1c[nH]c(CC(=O)NCc2ccc3c(-c4cccc(C(N)=S)c4)cn(C4CCN(S(C)(=O)=O)CC4)c3c2)c1
IC50 [11]: < 20 µM

NCc1ccnc(-n2cccc2)c1
IC50 [11]: > 100 µM

NC(=O)c1cc2c(-c3cccc(C(N)=S)c3)cccc2[nH]1
IC50 [11]: > 100 µM

NC(=S)c1cccc(-c2cn(CCO)c3cc([N+](=O)[O-])ccc23)c1
IC50 [11]: 20 to 100 µM

NC(=S)c1nccs1
IC50 [11]: > 100 µM

NC(=S)c1cccc(-c2cn(CC(CO)(C(F)F)C(F)F)c3cc(C(O)CC(F)F)ccc23)c1 (stereo unspecified)
IC50 [11]: < 20 µM

COc1ccccc1-c1cccc(C(N)=S)c1
IC50 [11]: > 100 µM

NC(=S)c1cc(-c2ccc(O)cc2)cs1
IC50 [11]: > 100 µM

Cc1cc2c(-c3cccc(C(N)=S)c3)cccc2n1C
IC50 [11]: > 100 µM

NC(=S)c1cccc(-c2cn(CC(CF)CF)c3cc(N)ccc23)c1
Activity [1]: Non-Toxic
Activity [2]: Non-Toxic
Activity (Mus musculus): Active
Activity [3]: Non-Toxic
Activity [15]: Non-Toxic
inhibition [4]: Active
inhibition [5]: Active
inhibition [6]: Active
GI50 at 288 h [7]: 33 µM
GI50 (MV4-11): 2 µM
inhibition [8]: Active
GI50 [9]: 6 µM
Activity [10]: Non-Toxic
GI50 (MOLM-13): 9 µM
IC50 [11]: 4.6 µM

NC(=S)c1cc(-c2cn(CCC(F)F)c3cc(CO)ccc23)c[nH]1
IC50 [11]: < 20 µM

NC(=S)c1cc(-c2cn(CC(CF)CF)c3cc(CO)ccc23)ccc1F
IC50 [11]: < 20 µM

NCc1ccc2c(-c3cccc(C(N)=S)c3)c[nH]c2c1
IC50 [11]: 36 µM
